# Columns and labels:
# [1] = system: human immature dendritic cells (hiDCs); test: Luciferase reporter mRNA translation in human immature dendritic cells; format: cell-based; conditions: co-transcriptionally capped Luciferase mRNA, 700 ng per well, liposome formulated, recorded over 72 h
# Procedure: As a functional assay of cap analog incorporation, and as a test of translatability of the resulting cap structure, differently capped mRNA encoding a Luciferase reporter was transfected into human immature dendritic cells (hiDCs). For that, 700 ng capped RNA per well were formulated with liposomes as described in Kranz et al., Nature 534, 396-401 (2016), and added to a 96-well containing 5E04 hiDCs. Subsequently, reporter activity was recorded over 72 h.
# Balb/c mice = test: Luciferase mRNA expression in vivo, bioluminescence imaging after intravenous application; conditions: 10 μg RNA per mouse, i.v.
Substance,translation in hiDCs (luciferase reporter activity) relative to mRNA capped with the corresponding D1 or D2 diastereomer of beta-S-ARCA [1],in vivo luciferase protein levels compared to all cap0 RNAs (Balb/c mice; all time points),in vivo luciferase protein levels compared to enzymatically capped cap1 mRNA (Balb/c mice; at the other time points)
"m2^7,2′-OGppSpm^2′-OGpG [Compound 1 (D1)]",comparable levels,,
"m2^7,2′-OGppSpm^2′-OGpG [Compound 1]",,always higher levels,only slightly lower levels
